Measured values: patent publication US20200360318A1, “COMPOSITIONS AND METHODS FOR INCREASING THE POLLINATION PERFORMANCE OF BEES” (Beeflow Corporation, priority 2019, published 2020)

Assay: ABA content in fifth instar larvae of colonies fed ABA syrup
Assay type: in vivo, honey bees
Settings: 10 μM ABA in sucrose syrup (2:1); fifth instar larvae (L5), two months after starting treatment
Experimental: ABA was added to sucrose syrup (2:1, sucrose:water) to achieve a concentration of 10 μM ABA. Two groups of small colonies of honey bees were used to test if the compound was reaching the bee larvae. One group of colonies was exposed to the solution by way of adding the solution to feed the bees in the beehive, while the other was not. In order to corroborate that the ABA supplemented in the syrup actually reached the larvae, the ABA content was measured in fifth instar larvae (L5) two months after starting treatment.

**Q.** For `CC1=CC(=O)CC(C)(C)[C@@]1(O)/C=C/C(C)=C\C(=O)O` [ABA, (2Z,4E)-5-[(1S)-1-hydroxy-2,6,6-trimethyl-4-oxocyclohex-2-en-1-yl]-3-methylpenta-2,4-dienoic acid], which “concentration of ABA in larvae compared to the control colony” value is on record?
**A.** Its value is 28 x.
